According to patent US12559474B2, “Triazine derivatives having virus replication inhibitory activity and pharmaceutical composition comprising the same” (priority 2021, dated 2026):
Values joined by “and” are separate entries in the source; they are usually repeats but may differ in a detail not shown here. Equal values may be shown once. Read-outs that look alike come from different tables or passages of the source.

Assays:
SARS-CoV-2 3CL protease = SARS-CoV-2 3CL protease (Severe acute respiratory syndrome coronavirus 2, UniProt P0DTD1); assay: biochemical
SARS-CoV-2 = assay: microbe, parasite or virus in culture; format: cell-based; details: for EC50: Severe acute respiratory syndrome coronavirus 2, VeroE6/TMPRSS2, 72 h, 50% SARS-CoV-2 infected cell death inhibitory concentration, VeroE6/TMPRSS2 cells, 3 days culture; for coronavirus replication inhibitory activity: at concentrations up to 50 μM, tested as in Test Example 1 (Reference Example 1)
[1] = 50% SARS-CoV-2 3CL protease inhibitory concentration, RapidFire MS, read-out: IC50
[2] = 50% SARS-CoV-2 3CL protease inhibitory concentration, given as class symbols, read-out: IC50

Row | SMILES | IC50 (SARS-CoV-2 3CL protease; [2]) [nM] | EC50 (SARS-CoV-2; class symbols) [nM] | also measured
1 | O=c1[nH]cccc1Cn1c(=O)nc(N2Cc3ccccc3C2)n(Cc2cc(F)c(F)c(F)c2)c1=O [Compound I-0180] |  |  | IC50 (SARS-CoV-2 3CL protease; [1]): 58 nM; EC50 (SARS-CoV-2; CellTiter-Glo 2.0): 6410 nM
2 | Cc1cc(F)c(Cl)cc1Cn1c(Nc2cc3cn(C)nc3cc2Cl)nc(=O)n(Cc2ncn(C)n2)c1=O [II-0044] | < 100 | < 1000 | 
3 | COc1cncc(-n2c(=O)nc(Nc3cc4cn(C)nc4cc3Cl)n(Cc3cc(F)c(F)c(F)c3)c2=O)c1 [II-0495] | < 100 | < 1000 | 
4 | C[C@@H](O)Cn1cc2cc(Nc3nc(=O)n(Cc4ccc[nH]c4=O)c(=O)n3Cc3cc(F)c(F)c(F)c3)c(Cl)cc2n1 [Compound I-0425] | < 100 | 1000 to 10000 | 
5 | CNc1nc2cc(Cl)c(Nc3nc(=O)n(-c4cncc(C)c4)c(=O)n3Cc3cc(C#N)ccc3Cl)cc2o1 [II-0545] |  |  | IC50 (SARS-CoV-2 3CL protease; [1]): 8.6 nM; EC50 (SARS-CoV-2; CellTiter-Glo 2.0): 750 nM
6 | O=c1[nH]cc(Cl)cc1Cn1c(=O)nc(Nc2cc3c(cc2Cl)OCC3)n(Cc2cc(F)c(F)c(F)c2)c1=O [Compound I-0391] |  |  | IC50 (SARS-CoV-2 3CL protease; [1]): 7.6 nM; EC50 (SARS-CoV-2; CellTiter-Glo 2.0): 460 nM
7 | COc1ccc(Nc2nc(=O)n(Cc3ncn(C)n3)c(=O)n2Cc2cc(F)c(F)c(F)c2)c(Cl)c1 [Compound I-0346] | < 100 | < 1000 | 
8 | O=c1[nH]cccc1Cn1c(=O)nc(Nc2ccc(O)cc2Cl)n(Cc2cc(F)c(F)c(F)c2)c1=O [Compound I-0330] | < 100 | 1000 to 10000 | 
9 | CNC(=O)Cn1cc2cc(Nc3nc(=O)n(-c4cncc(C)c4)c(=O)n3Cc3cc(F)c(F)c(F)c3)c(Cl)cc2n1 [II-0440] | < 100 | 1000 to 10000 | 
10 | CC(=O)NCCn1cc2cc(Nc3nc(=O)n(-c4cncc5ccccc45)c(=O)n3Cc3cc(F)c(F)c(F)c3)c(Cl)cc2n1 [Compound I-0471] | < 100 | 1000 to 10000 | 
11 | O=c1[nH]cccc1Cn1c(=O)nc(NC23CC(Nc4ncc(F)cn4)(C2)C3)n(Cc2cc(F)c(F)c(F)c2)c1=O [II-0460] |  |  | IC50 (SARS-CoV-2 3CL protease; [1]): 22 nM; EC50 (SARS-CoV-2; CellTiter-Glo 2.0): 19000 nM
12 | COCCn1cc2cc(Nc3nc(=O)n(Cc4ccc[nH]c4=O)c(=O)n3Cc3cc(F)c(F)c(F)c3)c(Cl)cc2n1 [Compound I-0285] | < 100 | 1000 to 10000 | 
13 | Cc1cncc(-n2c(=O)nc(Nc3cc4cn(C)nc4cc3Cl)n(Cc3ccc(F)c(C#N)n3)c2=O)c1 [II-0539] | < 100 | 1000 to 10000 | 
14 | Cn1cnc(Cn2c(=O)nc(Nc3cc4cccnc4cc3Cl)n(Cc3cc(F)c(F)cc3F)c2=O)n1 [II-0039] | < 100 | 1000 to 10000 | 
15 | O=C(O)c1ccc(Oc2ccc(/N=c3\[nH]c(=O)n(-c4cccs4)c(=O)n3Cc3ccc(Cl)cc3)cc2)nc1 [Compound I-575, reference compound] |  |  | coronavirus replication inhibitory activity (SARS-CoV-2): did not show coronavirus replication inhibitory activity
16 | Cc1nc2ccc(/N=c3\[nH]c(=O)n(C[C@H]4COC(C)(C)O4)c(=O)n3Cc3ccc(Cl)cc3)cc2s1 [Compound I-1603, reference compound] |  |  | coronavirus replication inhibitory activity (SARS-CoV-2): did not show coronavirus replication inhibitory activity
17 | CC(C)Oc1ccc(/N=c2\[nH]c(=O)n(Cc3ncn[nH]3)c(=O)n2Cc2ccc(Cl)cc2)cc1F [Compound I-0679, reference compound] |  |  | coronavirus replication inhibitory activity (SARS-CoV-2): did not show coronavirus replication inhibitory activity
18 | Cn1cnc(Cn2c(=O)nc(Nc3cc4cn(C)nc4cc3Cl)n(Cc3cc(F)ccc3F)c2=O)n1 [II-0208] |  | 1000 to 10000 | 
19 | Cc1cncc(-n2c(=O)[nH]/c(=N\c3cc4cn(C)nc4cc3Cl)n(Cc3cc(F)c(F)c(F)c3)c2=O)c1 [Compound I-0113] |  |  | EC50 (SARS-CoV-2; CellTiter-Glo 2.0): 177 nM
20 | COc1ncccc1Cn1c(=O)[nH]/c(=N\c2ccc(OC(C)C)c(F)c2)n(Cc2ccc(Cl)cc2)c1=O [Compound I-0683, reference compound] |  |  | coronavirus replication inhibitory activity (SARS-CoV-2): did not show coronavirus replication inhibitory activity
21 | Cc1cncc(-n2c(=O)nc(Nc3cc4cn(C)nc4cc3Cl)n(Cc3cc(F)c(F)cc3F)c2=O)c1 [Compound I-0361] |  |  | EC50 (SARS-CoV-2; CellTiter-Glo 2.0): 131 nM
22 | Cn1cnc(Cn2c(=O)nc(Nc3cc4cn(CC(=O)N5CCCCC5)nc4cc3Cl)n(Cc3cc(F)c(F)c(Cl)c3)c2=O)n1 [II-0142] |  |  | IC50 (SARS-CoV-2 3CL protease; IC50): < 100 nM
23 | Cc1ccc(Cl)cc1Cn1c(NC23CC(Nc4ncccn4)(C2)C3)nc(=O)n(Cc2ccncc2C)c1=O [II-0630] |  |  | IC50 (SARS-CoV-2 3CL protease; IC50): < 100 nM
24 | COc1ccc(Nc2nc(=O)n(Cc3c[nH]c(=S)[nH]c3=O)c(=O)n2Cc2cc(F)c(F)c(F)c2)cc1 [Compound I-0103] |  |  | IC50 (SARS-CoV-2 3CL protease; IC50): < 100 nM
25 | COc1ccc(Nc2nc(=O)n(Cc3cnc(C)[nH]c3=O)c(=O)n2Cc2cc(F)c(F)c(F)c2)cc1 [Compound I-0403] |  |  | IC50 (SARS-CoV-2 3CL protease; IC50): 310 nM and 100 to 1000 nM
26 | Cc1cncc(-n2c(=O)nc(Nc3ccc4nnn(C)c4c3)n(Cc3ccc(F)c(C#N)c3)c2=O)c1 [II-0357] |  |  | IC50 (SARS-CoV-2 3CL protease; IC50): < 100 nM
27 | COc1ccc(Nc2nc(=O)n(Cc3cn(CCO)cn3)c(=O)n2Cc2cc(F)c(F)c(F)c2)cc1 [Compound I-0415] |  |  | IC50 (SARS-CoV-2 3CL protease; IC50): 3000 nM and 1000 to 10000 nM
28 | Cc1cncc(-n2c(=O)nc(Nc3cc(Cl)c(N=S4(=O)CCCC4)cc3Cl)n(Cc3cc(Cl)ccc3C)c2=O)c1 [II-0619] |  |  | IC50 (SARS-CoV-2 3CL protease; IC50): < 100 nM
